Assay results reported in US20160311806A1, “4,4'-BIPHENYLDIYL-BIS-(1 H-IMIDAZOLYL) DERIVATIVES AS HEPATITIS HCV INHIBITORS” (BRISTOL-MYERS SQUIBB COMPANY, priority 2013, published 2016).
pEC50: −log10 of the molar value. Like-named read-outs stand apart in the source and are kept apart here.

Columns and labels:
HCV 1b genotype = test: HCV replicon assay, genotype 1b; assay type: cell-based; conditions: Hepatitis C virus, read-out: 1b LE (EC50)
Protocol: (§1) An HCV Replicon assay was utilized in the present disclosure, and was prepared, conducted and validated as described in commonly owned PCT/US2006/022197 and in O'Boyle et. al. Antimicrob Agents Chemother. 2005 April; 49(4):1346-53. Assay methods incorporating luciferase reporters have also been used as described (Apath.com).
(§2) HCV-neo replicon cells and replicon cells containing resistance substitutions in the NS5A region were used to test the currently described family of compounds. The compounds were determined to have differing degrees of reduced inhibitory activity on cells containing mutations vs. the corresponding inhibitory potency against wild-type cells. Thus, the compounds of the present disclosure can be effective in inhibiting the function of the HCV NS5A protein and are understood to be as effective in combinations as previously described in application PCT/US2006/022197 and commonly owned WO/04014852. It should be understood that the compounds of the present disclosure can inhibit multiple genotypes of HCV.

HCV 1a = test: HCV replicon assay, genotype 1a; assay type: cell-based; conditions: Hepatitis C virus, read-out: 1a LE (EC50)
Protocol: as §1, §2

Compound: CC[C@@H]1C[C@@H]([C@H](NC(=O)OC)C(=O)N2[C@@H](C)CC[C@H]2c2ncc(-c3ccc(-c4ccc(-c5cnc([C@@H]6CC[C@H](C)N6C(=O)[C@@H](NC(=O)OC)[C@H]6C[C@@H](C)O[C@H](C7CC7)C6)[nH]5)cc4)cc3)[nH]2)C[C@@H](C)O1 [Example 1, methyl N-[(1S)-1-[(2S,4S,6R)-2-cyclopropyl-6-methyloxan-4-yl]-2-[(2S,5S)-2-{5-[4-(4-{2-[(2S,5S)-1-[(2S)-2-[(2R,4S,6R)-2-ethyl-6-methyloxan-4-yl]-2-[(methoxycarbonyl)amino]acetyl]-5-methylpyrrolidin-2-yl]-1H-imidazol-5-yl}phenyl)phenyl]-1H-imidazol-2-yl}-5-methylpyrrolidin-1-yl]-2-oxoethyl]carbamate]
- pEC50 (HCV 1b genotype; given as range class): 11.10 to 11.70
- pEC50 (HCV 1a; given as range class): 11.10 to 11.70

Compound: CC[C@@H]1C[C@@H]([C@H](NC(=O)OC)C(=O)N2[C@@H](C)CC[C@H]2c2ncc(-c3ccc(-c4ccc(-c5cnc([C@@H]6CC[C@H](C)N6C(=O)[C@@H](NC(=O)OC)[C@H]6C[C@@H](C)O[C@H](C7CC7)C6)[nH]5)cc4)cc3)[nH]2)CCO1 [Example 2, methyl N-[(1S)-1-[(2S,4S,6R)-2-cyclopropyl-6-methyloxan-4-yl]-2-[(2S,5S)-2-{5-[4-(4-{2-[(2S,5S)-1-[(2S)-2-[(2R,4S)-2-ethyloxan-4-yl]-2-[(methoxycarbonyl)amino]acetyl]-5-methylpyrrolidin-2-yl]-1H-imidazol-5-yl}phenyl)phenyl]-1H-imidazol-2-yl}-5-methylpyrrolidin-1-yl]-2-oxoethyl]carbamate]
- pEC50 (HCV 1b genotype): 11.24
- pEC50 (HCV 1a): 11.34

Compound: COC(=O)N[C@H](C(=O)N1[C@@H](C)CC[C@H]1c1ncc(-c2ccc(-c3ccc(-c4cnc([C@@H]5CC[C@H](C)N5C(=O)[C@@H](NC(=O)OC)[C@H]5C[C@@H](C)O[C@H](C6CC6)C5)[nH]4)cc3)cc2)[nH]1)C(C)C [Example 3, methyl N-[(1S)-1-[(2S,4S,6R)-2-cyclopropyl-6-methyloxan-4-yl]-2-[(2S,5S)-2-{5-[4-(4-{2-[(2S,5S)-1-[(2S)-2-[(methoxycarbonyl)amino]-3-methylbutanoyl]-5-methylpyrrolidin-2-yl]-1H-imidazol-5-yl}phenyl)phenyl]-1H-imidazol-2-yl}-5-methylpyrrolidin-1-yl]-2-oxoethyl]carbamate]
- pEC50 (HCV 1b genotype): 11.57
- pEC50 (HCV 1a): 11.14

Compound: COC(=O)N[C@H](C(=O)N1[C@@H](C)CC[C@H]1c1ncc(-c2ccc(-c3ccc(-c4cnc([C@@H]5CC[C@H](C)N5C(=O)[C@H](NC(=O)OC)c5ccccc5)[nH]4)cc3)cc2)[nH]1)[C@H]1C[C@@H](C)O[C@H](C2CC2)C1 [Example 4, methyl N-[(1S)-1-[(2S,4S,6R)-2-cyclopropyl-6-methyloxan-4-yl]-2-[(2S,5S)-2-{5-[4-(4-{2-[(2S,5S)-1-[(2R)-2-[(methoxycarbonyl)amino]-2-phenylacetyl]-5-methylpyrrolidin-2-yl]-1H-imidazol-5-yl}phenyl)phenyl]-1H-imidazol-2-yl}-5-methylpyrrolidin-1-yl]-2-oxoethyl]carbamate]
- pEC50 (HCV 1b genotype; given as range class): 11.10 to 11.70
- pEC50 (HCV 1a; given as range class): 11.10 to 11.70

Compound: COC(=O)N[C@H](C(=O)N1[C@@H](C)CC[C@H]1c1ncc(-c2ccc(-c3ccc(-c4cnc([C@@H]5CC[C@H](C)N5C(=O)[C@@H](NC(=O)OC)[C@H]5C[C@@H](C)O[C@H](C6CC6)C5)[nH]4)cc3)cc2)[nH]1)C1C[C@@H](C)O[C@H](C)C1 (stereo partly drawn) [Example 5, methyl N-[(1S)-1-[(2S,4S,6R)-2-cyclopropyl-6-methyloxan-4-yl]-2-[(2S,5S)-2-{5-[4-(4-{2-[(2S,5S)-1-[(2S)-2-[(2R,6R)-2,6-dimethyloxan-4-yl]-2-[(methoxycarbonyl)amino]acetyl]-5-methylpyrrolidin-2-yl]-1H-imidazol-5-yl}phenyl)phenyl]-1H-imidazol-2-yl}-5-methylpyrrolidin-1-yl]-2-oxoethyl]carbamate]
- pEC50 (HCV 1b genotype; given as range class): 11.10 to 11.70
- pEC50 (HCV 1a; given as range class): 11.10 to 11.70
